Data published in PMC8217813, “Bridging Computational Vaccinology and Vaccine Development Through Systematic Identification, Characterization, and Downselection of Conserved and Variable Circumsporozoite Protein CD4 T Cell Epitopes From Diverse Plasmodium falciparum Strains” (Frontiers in Immunology, 2021).
Like-named read-outs stand apart in the source and are kept apart here. Peptide text beside a SMILES is read from it.

Legend:
[1] = target: T1, HLA-DRB1*1501 (Homo sapiens, UniProt P01903+P01911); assay: In vitro class II HLA binding competition assay
T1 construct: purchased
Experimental: (§1) EpiVax conducted in vitro quantification of peptide-HLA binding affinity utilizing a competition assay format per the methodology described in ([35]). Briefly, a fluorescent-labeled, high-binding reference peptide and titrating concentrations of test peptide were incubated in a 96-well plate format with limiting concentrations of class II HLA monomers in aqueous buffer for 24-hours. Post incubation, the mixtures were moved to a 96-well plate coated with anti-HLA-DR antibody to capture HLA-peptide complexes. Time-resolved fluorescence measurement of the bound labeled reference peptide complex present in each mixture were detected with a europium-linked probe via fluorescent spectrophotometry using a SpectraMax M5 system. HLA binding affinity of each test peptide was expressed as the percent inhibition of reference peptide binding. Percent inhibition values (across the test peptide titration range) were used to calculate the half maximal inhibitory concentration (IC50) of each test peptide. For these studies, test peptides were assessed using a range of final concentrations from 100,000 nM to 100 nM and all peptides were reconstituted in dimethyl sulfoxide (DMSO).

[2] = target: T2, HLA-DRB1*0101 (Homo sapiens, UniProt P01903+P01911, A100R/D57E/F55L/F60I/F76Y/I96L/L162R/M171V/P40L/Q125E/R42F/V115G/Y59C); assay: In vitro class II HLA binding competition assay
T2 construct: purchased
Experimental: as §1

[3] = target: HLA-DRB1*0701 (Homo sapiens, UniProt P01903+P01911, A100R/A102G/A103Q/D57E/D86V/E43K/F76Y/K127E/L162R/M171V/P40G/Q125H/Q99D/R33Q/R42Y/R54Q/S133A/S66F/T210M/V115G/Y107V/Y59L/Y89S); assay: In vitro class II HLA binding competition assay
Experimental: as §1

[4] = test system: CD4 T cells co-cultured with autologous DCs from PBMCs; type: cell-based, human
[5] = target: HLA-DRB1*0801 (Homo sapiens, UniProt P01903+P01911, A100R/A103L/A169T/D86S/F76Y/H45Y/I96F/K41T/L162R/M171V/P40S/Q125H/Q178H/Q39Y/Q99D/R218S/R42G/S66Y/V115G/W38E); assay: In vitro class II HLA binding competition assay; settings: competition with fluorescent-labeled reference peptide, class II HLA monomers, 24-hours, test peptide 100,000 nM to 100 nM, time-resolved fluorescence
Experimental: as §1

[6] = target: HLA-DRB1*1301 (Homo sapiens, UniProt P01903+P01911, A100E/A169T/K41T/L162R/M171V/P40S/Q125H/Q178H/Q39Y/Q99D/R42S/S66N/T262R/W38E/Y61H); assay: In vitro class II HLA binding competition assay; settings: competition with fluorescent-labeled reference peptide, class II HLA monomers, 24-hours, test peptide 100,000 nM to 100 nM, time-resolved fluorescence
Experimental: as §1

[7] = target: T3, HLA-DRB1*0401 (Homo sapiens, UniProt P01903+P01911, A100K/A169T/F76Y/I96L/K127E/L162R/M171V/N62H/P40V/Q125Y/R42H/S133A/S149N/S66Y/V115G/V209L/W38E); assay: In vitro class II HLA binding competition assay
T3 construct: purchased
Experimental: as §1

[8] = DR1 donors N=5, positive = Stimulation Index ≥1.5-fold above baseline, ICCS, 5 µg/mL peptide
[9] = DR3 donors N=6, positive = Stimulation Index ≥1.5-fold above baseline, ICCS, 5 µg/mL peptide
[10] = DR4 donors N=10, positive = Stimulation Index ≥1.5-fold above baseline, ICCS, 5 µg/mL peptide
[11] = DR7 donors N=4, positive = Stimulation Index ≥1.5-fold above baseline, ICCS, 5 µg/mL peptide
[12] = DR8 donors N=4, positive = Stimulation Index ≥1.5-fold above baseline, ICCS, 5 µg/mL peptide
[13] = DR9 donors N=4, positive = Stimulation Index ≥1.5-fold above baseline, ICCS, 5 µg/mL peptide
[14] = DR11 donors N=4, positive = Stimulation Index ≥1.5-fold above baseline, ICCS, 5 µg/mL peptide
[15] = DR13 donors N=7, positive = Stimulation Index ≥1.5-fold above baseline, ICCS, 5 µg/mL peptide
[16] = DR15 donors N=7, positive = Stimulation Index ≥1.5-fold above baseline, ICCS, 5 µg/mL peptide

CC(C)C[C@H](NC(=O)[C@@H](NC(=O)[C@H](CCCNC(=N)N)NC(=O)[C@@H](NC(=O)[C@H](CC(N)=O)NC(=O)[C@H](CO)NC(=O)[C@H](CO)NC(=O)[C@H](CO)NC(=O)CNC(=O)[C@H](Cc1ccc(O)cc1)NC(=O)[C@H](CS)NC(=O)[C@H](CCC(N)=O)NC(=O)[C@H](Cc1ccc(O)cc1)NC(=O)[C@H](CCC(=O)O)NC(=O)[C@H](CCC(N)=O)NC(=O)[C@H](Cc1ccccc1)NC(=O)[C@H](CCCCN)NC(=O)[C@@H](N)CCCCN)[C@@H](C)O)C(C)C)C(=O)N[C@@H](CC(N)=O)C(=O)N[C@@H](CCC(=O)O)C(N)=O [Cluster C1] (H-KKFQEYQCYGSSSNTRVLNE-NH2)
IC50 ([1]; competition with fluorescent-labeled reference peptide, class II HLA monomers, 24-hours, test peptide 100,000 nM to 100 nM, time-resolved fluorescence, read-out: IC50, DRB1*1501): 1.77 µM | IC50 ([2]; competition with fluorescent-labeled reference peptide, class II HLA monomers, 24-hours, test peptide 100,000 nM to 100 nM, time-resolved fluorescence): 50.1 µM | IC50 ([3]; competition with fluorescent-labeled reference peptide, class II HLA monomers, 24-hours, test peptide 100,000 nM to 100 nM, time-resolved fluorescence, read-out: IC50, DRB1*0701): 36.7 µM

CC[C@H](C)[C@H](NC(C)=O)C(=O)N[C@@H](CCC(=O)O)C(=O)N[C@@H](CCC(N)=O)C(=O)N[C@@H](Cc1ccc(O)cc1)C(=O)N[C@@H](CC(C)C)C(=O)N[C@@H](CCCCN)C(=O)N[C@@H](CCCCN)C(=O)N[C@H](C(=O)N[C@@H](CCC(N)=O)C(=O)N[C@@H](Cc1ccc(O)cc1)C(=O)N[C@@H](CO)C(=O)N[C@@H](CC(C)C)C(=O)N[C@@H](CO)C(=O)N[C@H](C(=O)N[C@@H](CCC(=O)O)C(=O)N[C@@H](Cc1c[nH]c2ccccc12)C(=O)N[C@@H](CO)C(=O)N1CCC[C@H]1C(=O)N[C@@H](CS)C(N)=O)[C@@H](C)O)[C@@H](C)CC [ICS7] (Ac-IEQYLKKIQYSLSTEWSPC-NH2)
median SI, IFN-γ recall responses [4]: 1.75 | Percentage of donors demonstrating IFN-γ responses, DR1 ([4]; DR1 donors N=5, positive = Stimulation Index ≥1.5-fold above baseline, ICCS after 14-day co-culture, 5 µg/mL peptide): 60% | Percentage of donors demonstrating IL-2 responses, DR1 [4, 8]: 60% | Percentage of donors demonstrating IL-4 responses, DR1 [4, 8]: 20% | Percentage of donors demonstrating IL-10 responses, DR1 [4, 8]: 0% | Percentage of donors demonstrating TNF-α responses, DR1 [4, 8]: 40% | Percentage of donors demonstrating IFN-γ responses, DR3 ([4]; DR3 donors N=6, positive = Stimulation Index ≥1.5-fold above baseline, ICCS after 14-day co-culture, 5 µg/mL peptide): 67% | Percentage of donors demonstrating IL-2 responses, DR3 [4, 9]: 33% | Percentage of donors demonstrating IL-4 responses, DR3 [4, 9]: 0% | Percentage of donors demonstrating IL-10 responses, DR3 [4, 9]: 0% | Percentage of donors demonstrating TNF-α responses, DR3 [4, 9]: 50% | Percentage of donors demonstrating IFN-γ responses, DR4 ([4]; DR4 donors N=10, positive = Stimulation Index ≥1.5-fold above baseline, ICCS after 14-day co-culture, 5 µg/mL peptide): 70% | Percentage of donors demonstrating IL-2 responses, DR4 [4, 10]: 70% | Percentage of donors demonstrating IL-4 responses, DR4 [4, 10]: 0% | Percentage of donors demonstrating IL-10 responses, DR4 [4, 10]: 10% | Percentage of donors demonstrating TNF-α responses, DR4 [4, 10]: 80% | Percentage of donors demonstrating IFN-γ responses, DR7 ([4]; DR7 donors N=4, positive = Stimulation Index ≥1.5-fold above baseline, ICCS after 14-day co-culture, 5 µg/mL peptide): 75% | Percentage of donors demonstrating IL-2 responses, DR7 [4, 11]: 75% | Percentage of donors demonstrating IL-4 responses, DR7 [4, 11]: 0% | Percentage of donors demonstrating IL-10 responses, DR7 [4, 11]: 25% | Percentage of donors demonstrating TNF-α responses, DR7 [4, 11]: 75% | Percentage of donors demonstrating IFN-γ responses, DR8 ([4]; DR8 donors N=4, positive = Stimulation Index ≥1.5-fold above baseline, ICCS after 14-day co-culture, 5 µg/mL peptide): 75% | Percentage of donors demonstrating IL-2 responses, DR8 [4, 12]: 75% | Percentage of donors demonstrating IL-4 responses, DR8 [4, 12]: 0% | Percentage of donors demonstrating IL-10 responses, DR8 [4, 12]: 0% | Percentage of donors demonstrating TNF-α responses, DR8 [4, 12]: 100% | Percentage of donors demonstrating IFN-γ responses, DR9 ([4]; DR9 donors N=4, positive = Stimulation Index ≥1.5-fold above baseline, ICCS after 14-day co-culture, 5 µg/mL peptide): 50% | Percentage of donors demonstrating IL-2 responses, DR9 [4, 13]: 75% | Percentage of donors demonstrating IL-4 responses, DR9 [4, 13]: 0% | Percentage of donors demonstrating IL-10 responses, DR9 [4, 13]: 0% | Percentage of donors demonstrating TNF-α responses, DR9 [4, 13]: 50% | Percentage of donors demonstrating IFN-γ responses, DR11 ([4]; DR11 donors N=4, positive = Stimulation Index ≥1.5-fold above baseline, ICCS after 14-day co-culture, 5 µg/mL peptide): 25% | Percentage of donors demonstrating IL-2 responses, DR11 [4, 14]: 25% | Percentage of donors demonstrating IL-4 responses, DR11 [4, 14]: 0% | Percentage of donors demonstrating IL-10 responses, DR11 [4, 14]: 0% | Percentage of donors demonstrating TNF-α responses, DR11 [4, 14]: 25% | Percentage of donors demonstrating IFN-γ responses, DR13 ([4]; DR13 donors N=7, positive = Stimulation Index ≥1.5-fold above baseline, ICCS after 14-day co-culture, 5 µg/mL peptide): 86% | Percentage of donors demonstrating IL-2 responses, DR13 [4, 15]: 57% | Percentage of donors demonstrating IL-4 responses, DR13 [4, 15]: 0% | Percentage of donors demonstrating IL-10 responses, DR13 [4, 15]: 14% | Percentage of donors demonstrating TNF-α responses, DR13 [4, 15]: 71% | Percentage of donors demonstrating IFN-γ responses, DR15 ([4]; DR15 donors N=7, positive = Stimulation Index ≥1.5-fold above baseline, ICCS after 14-day co-culture, 5 µg/mL peptide): 43% | Percentage of donors demonstrating IL-2 responses, DR15 [4, 16]: 57% | Percentage of donors demonstrating IL-4 responses, DR15 [4, 16]: 0% | Percentage of donors demonstrating IL-10 responses, DR15 [4, 16]: 14% | Percentage of donors demonstrating TNF-α responses, DR15 [4, 16]: 57% | IC50 [5]: 6.09 µM | IC50 [1]: 63.2 µM | IC50 [2]: > 100 µM | IC50 [3]: 2.76 µM | IC50 [6]: 17.9 µM | IC50 [7]: 32.8 µM
